# In US20030119846A1, “Compounds with 5-ht activity useful for controlling visual field loss” (priority 2000, published 2003):
# Structures can show the parent of a compound that is named as a salt.
# Assays:
# [1] = target: T1, human cloned 5-HT1A receptors (Homo sapiens, UniProt P08908); test: 5-HT1A Receptor Binding Assay ([3H]8-OH-DPAT, CHO cell membranes); details: 0.25 nM [3H]8-OH-DPAT, 27° C., 1 h; read-out: Receptor Binding (IC50 nM, SEM)
# T1 construct: purchased NEN (manufactured by Biosignal, Inc., Montreal, Canada); host or cells: CHO cells
# T1 sequence (P08908 1-422): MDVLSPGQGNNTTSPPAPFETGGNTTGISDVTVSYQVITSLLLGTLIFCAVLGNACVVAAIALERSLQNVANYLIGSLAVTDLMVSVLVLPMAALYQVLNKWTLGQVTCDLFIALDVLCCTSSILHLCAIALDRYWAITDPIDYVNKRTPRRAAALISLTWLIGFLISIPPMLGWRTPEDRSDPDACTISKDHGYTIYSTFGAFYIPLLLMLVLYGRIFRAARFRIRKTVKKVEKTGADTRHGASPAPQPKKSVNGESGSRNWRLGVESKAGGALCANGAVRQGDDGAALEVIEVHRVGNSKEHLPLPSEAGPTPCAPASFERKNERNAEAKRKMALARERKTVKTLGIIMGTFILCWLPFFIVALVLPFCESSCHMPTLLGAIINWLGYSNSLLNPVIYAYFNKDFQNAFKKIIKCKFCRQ
# Experimental: 5-HT1A binding studies were performed with human cloned receptors expressed in Chinese hamster ovary (CHO) cells using (^3H)8-OH DPAT as the ligand. Membranes from Chinese hamster ovary cells (CHO) expressing cloned 5-HT1A receptors (manufactured for NEN by Biosignal, Inc., Montreal, Canada) were homogenized in approximately 40 volumes of 50 mM Tris pH 7.4 for 5 sec. Drug dilutions were made using a Beckman Biomek 2000 robot (Beckman Instruments, Fullerton, Calif.). Incubations were conducted with membrane prep, test compounds, and 0.25 nM [^3H]8-OH-DPAT (NEN, Boston, Mass.) in the same buffer at 27° C. for 1 h. Assays were terminated by rapid vacuum filtration over Whatman GF/B glass fiber filters pre-soaked in 0.3% polyethyleneimine. Bound radioactivity was measured using liquid scintillation spectrometry. Data were analyzed using non-linear curve fitting programs (Sharif et al., J. Pharmac. Pharmacol. 51:685-694, 1999).
# Ligand binding studies can also be run using membrane preparations from calf and rat brain (local source) and human cortex membranes. Specific brain regions were dissected out, homogenized in 10 volumes of 0.32 M sucrose and centrifuged for 10 min at 700×g. […] Ki values were calculated using the Cheng-Prusoff equation (De Vry et al., J. Pharm. Exper. Ther. 284:1082-1094, 1998.)
# [2] = system: retina (photo-oxidative injury); test: Neuroprotective effects in the acute blue-light damage model in the rat (ERG); type: in vivo, Sprague Dawley rats; details: for A-wave Amplitude Mean / B-wave Amplitude Mean: ERG after 5-day recovery
# Experimental: Male Sprague Dawley rats were randomly assigned to vehicle treatment (N=15) or drug treatment (0.5 mg/kg [N=5] or 1 mg/kg [N=15]) experimental groups. Xaliproden hydrochloride or vehicle was administered by intraperitonal (IP) injection at 48, 24, and 0 hours prior to light exposure. Photo-oxidative injury to the retina was induced in dark-adapted rats (24 hours) by a 6-hour blue-light exposure (220 fc). Control rats (N=11) were housed in their home cage under normal cyclic light exposure. Rats were single housed in clear polycarbonate cages during this light exposure.
# The electroretinogram (ERG) was recorded after a five day recovery period from dark-adapted anesthetized rats (Ketamine-HCl, 75 mg/Kg; Xylazine, 6 mg/Kg). The eye's electrical response to a flash of light was elicited by viewing a ganzfeld. ERGs to a series of light flashes increasing in intensity were digitized to analyze temporal characteristics of the waveform and determine the response voltage-log intensity (VlogI) relationship. Changes in the ERG a-wave are associated with photoreceptor and retinal pigment epithelium damage while damage to the inner retina is reflected in changes in the ERG b-wave.
# [3] = target: T2, 5-HT1A receptors (UniProt P08908); test: 5-HT1A Functional Assay (cAMP inhibition, forskolin-stimulated adenylate cyclase); details: read-out: cAMP Inhibition (EC50)
# T2 sequence (P08908 1-422): T1 sequence (P08908 1-422)
# Experimental: HeLa cells transfected with recombinant human 5-HT1A receptors were grown to confluence in 24-well plates. The cells were rinsed with 1 ml of Hepes-buffered saline (in MM) NaCl 130, KCl 5.4, CaCl2, 1.8, MgSO4 0.8, NaH2PO4 0.9, glucose 25, Hepes 20, pH 7.4, and phenol red 5 mg/l. The cells were labelled with 6 μCi/ml of [^2-3H]adenine (23 Ci/mmol, Amersham, Rahn AG, Zurich, Switzerland) in 0.5 ml of saline at 37 ° C. for 2 hr. The plates were subsequently rinsed twice with 1 ml of buffered saline containing 1 mM isobutylmethylxanthine. The cells were incubated for 15 min in 1 ml of this solution (37° C.) in the presence or absence of 10 μM forskolin and the test compound. The buffer was then removed and 1 ml of 5% trichloroacetic acid (TCA) containing 0.1 mM cAMP and 0.1 mM ATP was added to extract the samples. […] Cyclic AMP production was calculated as the ratio [^3H]cAMP/([^3H]cAMP+[^3H]ATP).
# [4] = 0.5 mg/kg IP at 48, 24, 0 h before 6-hour blue-light exposure
# [5] = 1.0 mg/kg IP at 48, 24, 0 h before 6-hour blue-light exposure
smiles,measurement,setting,value
"FC(F)(F)c1cccc(C2=CCN(CCc3ccc4ccccc4c3)CC2)c1 [SR-57746A, xaliproden hydrochloride]",IC50,[1],2.5 nM
same,A-wave Amplitude Mean,[2]; [4],550.5 μV
same,B-wave Amplitude Mean,[2]; [4],1361.1 μV
same,"Maximum a- and b-wave response amplitudes, % of controls","[2]; 0.5 mg/kg, light-exposed rats",82%
same,A-wave Amplitude Mean,[2]; [5],460.8 μV
same,B-wave Amplitude Mean,[2]; [5],1169.4 μV
same,"Maximum a- and b-wave response amplitudes, % of normal","[2]; 1 mg/kg, light-exposed rats",70%
same,Protection of retinal function,"[2]; 0.5 and 1.0 mg/kg, light-exposed rats",Significant protection of retinal function
same,EC50,[3],3.7 nM
